{"source": "patent US5206239A", "about": "“Pyrroloazepine derivatives” (Suntory Limited, priority 1990, dated 1993)", "key": {"α1": {"test_system": "α1", "assay": "Anti-α1 action: inhibition of norepinephrine-induced tonic contraction of isolated guinea pig thoracic aorta", "parameters": "species or system guinea pig (Hartley, male)", "details": "tonic contraction induced by 10^-5 M norepinephrine = 100%", "procedure": "(§1) With respect to the compounds of the present invention, their anti-α1 action and anti-serotonin action were investigated by the testing methods which will be described below.\nThe thoracic aorta of each Hartley male guinea pig (body weight: 300-500 g) was excised. […] Taking the tonic contraction induced by 10^-5 M norepinephrine (NE) as 100%, the percent contractions upon addition of each test drug at 10^-8 and 10^-7 M were determined as anti-α1 action."}, "[1]": {"assay": "Anti-serotonin action (anti-5-HT action): inhibition of serotonin-induced phasic contraction of isolated guinea pig superior mesenteric artery", "parameters": "species or system guinea pig (Hartley, male)", "details": "phasic contraction induced by 10^-5 M serotonin = 100%, read-out: Anti 5-HT action (percent contraction, % of Control); for remaining activity at 1 µM: 10^-6 M test drug; for remaining activity at 0.1 µM: 10^-7 M test drug", "procedure": "as §1\nTaking the phasic contraction induced by 10^-5 M serotonin as 100%, the percent contractions in the presence of each test drug at 10^-7 and 10^-6 M were determined as anti-5-HT action."}}, "note": "Read-outs that look alike come from different tables or passages of the source.", "data": [{"smiles": "O=C1CCN(Cc2ccccc2)C(=O)c2c1ccn2CCCCN1CCC(c2ccccc2)CC1", "note": "[Compound No. 48, 7-Benzyl-1-[4-(4-phenylpiperidin-1-yl)butyl]-6,7-dihydropyrrolo[2,3-c]azepine-4,8(1H,5H)-dione]", "values": [{"measurement": "Anti α1 action (percent contraction, % of Control)", "setting": "α1; 10^-7 M test drug, 0.1 µM", "value": "37.7 % of Control"}, {"measurement": "Anti α1 action (percent contraction, % of Control)", "setting": "α1; 10^-8 M test drug, 0.01 µM", "value": "77.4 % of Control"}, {"measurement": "remaining activity at 1 µM", "setting": "[1]", "value": 49, "unit": "%"}, {"measurement": "remaining activity at 0.1 µM", "setting": "[1]", "value": 88, "unit": "%"}]}, {"smiles": "CN1CCC(=NO)c2ccn(CCCCN3CCC(c4ccccc4)CC3)c2C1=O", "note": "[Compound No. 51, 4-hydroxyimino-7-methyl-1-[4-(4-phenylpiperidin-1-yl)butyl]-6,7-dihydropyrrolo-[2,3-c]azepin-8(1H,5H)-one]", "values": [{"measurement": "Anti α1 action (percent contraction, % of Control)", "setting": "α1; 10^-7 M test drug, 0.1 µM", "value": "30.8 % of Control"}, {"measurement": "Anti α1 action (percent contraction, % of Control)", "setting": "α1; 10^-8 M test drug, 0.01 µM", "value": "74.9 % of Control"}, {"measurement": "remaining activity at 1 µM", "setting": "[1]", "value": 54.4, "unit": "%"}, {"measurement": "remaining activity at 0.1 µM", "setting": "[1]", "value": 84.4, "unit": "%"}]}, {"smiles": "CN1CCC(=O)c2ccn(CCCCN3CCC(C(O)(c4ccc(F)cc4)c4ccc(F)cc4)CC3)c2C1=O", "note": "[Compound No. 54, 1-[4-[4-[Bis(4-fluorophenyl)hydroxymethyl]-piperidin-1-yl]butyl]-7-methyl-6,7-dihydropyrrolo[2,3-c]azepine-4,8(1H,5H)-dione]", "values": [{"measurement": "Anti α1 action (percent contraction, % of Control)", "setting": "α1; 10^-7 M test drug, 0.1 µM", "value": "26.0 % of Control"}, {"measurement": "Anti α1 action (percent contraction, % of Control)", "setting": "α1; 10^-8 M test drug, 0.01 µM", "value": "90.4 % of Control"}, {"measurement": "remaining activity at 1 µM", "setting": "[1]", "value": 14.7, "unit": "%"}, {"measurement": "remaining activity at 0.1 µM", "setting": "[1]", "value": 62.9, "unit": "%"}]}, {"smiles": "CN1CCC(=O)c2ccn(CCCCN3CCC(C(=O)c4ccc(F)cc4)CC3)c2C1=O", "note": "[Compound No. 60, 1-[4-[4-(4-fluorobenzoyl)piperidin-1-yl]butyl]-7-methyl-6,7-dihydropyrrolo[2,3-c]azepine-4,8(1H,5H)-dione]", "values": [{"measurement": "Anti α1 action (percent contraction, % of Control)", "setting": "α1; 10^-7 M test drug, 0.1 µM", "value": "20.5 % of Control"}, {"measurement": "Anti α1 action (percent contraction, % of Control)", "setting": "α1; 10^-8 M test drug, 0.01 µM", "value": "43.9 % of Control"}, {"measurement": "remaining activity at 1 µM", "setting": "[1]; guinea pig", "value": 11.8, "unit": "%"}, {"measurement": "remaining activity at 0.1 µM", "setting": "[1]; guinea pig", "value": 62.9, "unit": "%"}]}, {"smiles": "CN1CCC(=NO)c2ccn(CCCCN3CCC(C(=O)c4ccc(F)cc4)CC3)c2C1=O", "note": "[Compound No. 61, 1-[4-[4-(4-fluorobenzoyl)piperidin-1-yl]butyl]-4-hydroxyimino-7-methyl-6,7-dihydropyrrolo[2,3-c]azepin-8-(1H,5H)-one]", "values": [{"measurement": "Anti α1 action (percent contraction, % of Control)", "setting": "α1; 10^-7 M test drug, 0.1 µM", "value": "21.4 % of Control"}, {"measurement": "Anti α1 action (percent contraction, % of Control)", "setting": "α1; 10^-8 M test drug, 0.01 µM", "value": "44.7 % of Control"}, {"measurement": "remaining activity at 1 µM", "setting": "[1]", "value": 4.1, "unit": "%"}, {"measurement": "remaining activity at 0.1 µM", "setting": "[1]", "value": 12.1, "unit": "%"}]}, {"smiles": "CN1CCC(=NO)c2ccn(CCCCN3CCC(C(=O)c4ccc(F)cc4)CC3)c2C1=O.Cc1ccc(S(=O)(=O)O)cc1", "note": "[Compound No. 62, 1-[4-[4-(4-fluorobenzoyl)piperidin-1-yl]butyl]-4-hydroxyimino-7-methyl-6,7-dihydropyrrolo[2,3-c]azepin-8(1H,5H)-one p-toluenesulfonate]", "values": [{"measurement": "Anti α1 action (percent contraction, % of Control)", "setting": "α1; 10^-7 M test drug, 0.1 µM", "value": "17.1 % of Control"}, {"measurement": "Anti α1 action (percent contraction, % of Control)", "setting": "α1; 10^-8 M test drug, 0.01 µM", "value": "26.8 % of Control"}, {"measurement": "remaining activity at 1 µM", "setting": "[1]; guinea pig", "value": 8.2, "unit": "%"}, {"measurement": "remaining activity at 0.1 µM", "setting": "[1]; guinea pig", "value": 47.4, "unit": "%"}]}, {"smiles": "CCN1CCC(=NO)c2ccn(CCCCN3CCC(C(=O)c4ccc(F)cc4)CC3)c2C1=O", "note": "[Compound No. 65, 7-ethyl-1-[4-[4-(4-fluorobenzoyl)-piperidin-1-yl]butyl]-4-hydroxyimino-6,7-dihydro-pyrrolo[2,3-c]azepin-8-(1H,5H)-one]", "values": [{"measurement": "Anti α1 action (percent contraction, % of Control)", "setting": "α1; 10^-7 M test drug, 0.1 µM", "value": "9.9 % of Control"}, {"measurement": "Anti α1 action (percent contraction, % of Control)", "setting": "α1; 10^-8 M test drug, 0.01 µM", "value": "19.5 % of Control"}, {"measurement": "remaining activity at 1 µM", "setting": "[1]", "value": 3.6, "unit": "%"}, {"measurement": "remaining activity at 0.1 µM", "setting": "[1]", "value": 19.9, "unit": "%"}]}, {"smiles": "O=C(c1ccc(F)cc1)C1CCN(CCCCn2ccc3c2C(=O)N(Cc2ccccc2)CCC3=NO)CC1", "note": "[Compound No. 66]", "values": [{"measurement": "Anti α1 action (percent contraction, % of Control)", "setting": "α1; 10^-7 M test drug, 0.1 µM", "value": "10.4 % of Control"}, {"measurement": "Anti α1 action (percent contraction, % of Control)", "setting": "α1; 10^-8 M test drug, 0.01 µM", "value": "19.3 % of Control"}, {"measurement": "remaining activity at 1 µM", "setting": "[1]", "value": 6.9, "unit": "%"}, {"measurement": "remaining activity at 0.1 µM", "setting": "[1]", "value": 77.6, "unit": "%"}]}, {"smiles": "CCCN1CCC(=NO)c2ccn(CCCCN3CCC(C(=O)c4ccc(F)cc4)CC3)c2C1=O", "note": "[Compound No. 75, 1-[4-[4-(4-Fluorobenzoyl)piperidin-1-yl]butyl]-4-hydroxyimino-7-propyl-6,7-dihydropyrrolo[2,3-c]-azepin-8(1H,5H)-one]", "values": [{"measurement": "Anti α1 action (percent contraction, % of Control)", "setting": "α1; 10^-7 M test drug, 0.1 µM", "value": "17.9 % of Control"}, {"measurement": "Anti α1 action (percent contraction, % of Control)", "setting": "α1; 10^-8 M test drug, 0.01 µM", "value": "37.0 % of Control"}, {"measurement": "remaining activity at 1 µM", "setting": "[1]", "value": 8.2, "unit": "%"}, {"measurement": "remaining activity at 0.1 µM", "setting": "[1]", "value": 12.9, "unit": "%"}]}, {"smiles": "O=C1CCNC(=O)c2c1ccn2CCCCN1CCC(C(=O)c2ccc(F)cc2)CC1", "note": "[Compound No. 81, 1-[4-[4-(4-Fluorobenzoyl)piperidin-1-yl]butyl]-6,7-dihydropyrrolo[2,3-c]azepine-4,8(1H,5H)-dione]", "values": [{"measurement": "Anti α1 action (percent contraction, % of Control)", "setting": "α1; 10^-7 M test drug, 0.1 µM", "value": "28.9 % of Control"}, {"measurement": "Anti α1 action (percent contraction, % of Control)", "setting": "α1; 10^-8 M test drug, 0.01 µM", "value": "57.5 % of Control"}, {"measurement": "remaining activity at 1 µM", "setting": "[1]", "value": 14.3, "unit": "%"}, {"measurement": "remaining activity at 0.1 µM", "setting": "[1]", "value": 57.1, "unit": "%"}]}, {"smiles": "CN1CCC(=NO)c2ccn(CCCCN3CCC(Oc4ccc(F)cc4)CC3)c2C1=O", "note": "[Compound No. 84, 1-[4-[4-(4-Fluorophenoxy)piperidin-1-yl]butyl]-4-hydroxyimino-7-methyl-6,7-dihydropyrrolo[2,3-c]-azepin-8(1H,5H)-one]", "values": [{"measurement": "Anti α1 action (percent contraction, % of Control)", "setting": "α1; 10^-7 M test drug, 0.1 µM", "value": "67.0 % of Control"}, {"measurement": "Anti α1 action (percent contraction, % of Control)", "setting": "α1; 10^-8 M test drug, 0.01 µM", "value": "86.5 % of Control"}, {"measurement": "remaining activity at 1 µM", "setting": "[1]", "value": 3.8, "unit": "%"}, {"measurement": "remaining activity at 0.1 µM", "setting": "[1]", "value": 60, "unit": "%"}]}, {"smiles": "CC(=O)ON=C1CCN(C)C(=O)c2c1ccn2CCCCN1CCC(C(=O)c2ccc(F)cc2)CC1", "note": "[Compound No. 91, 4-acetoxyimino-1-[4-[4-(4-fluorobenzoyl)piperidin-1-yl)butyl]-7-methyl-6,7-dihydropyrrolo[2,3-c]azepin-8(1H,5H)-one]", "values": [{"measurement": "Anti α1 action (percent contraction, % of Control)", "setting": "α1; 10^-7 M test drug, 0.1 µM", "value": "35.5 % of Control"}, {"measurement": "Anti α1 action (percent contraction, % of Control)", "setting": "α1; 10^-8 M test drug, 0.01 µM", "value": "58.2 % of Control"}, {"measurement": "remaining activity at 1 µM", "setting": "[1]", "value": 10.3, "unit": "%"}, {"measurement": "remaining activity at 0.1 µM", "setting": "[1]", "value": 16.1, "unit": "%"}]}, {"smiles": "CN1CCC(=NOC(=O)c2ccccc2)c2ccn(CCCCN3CCC(C(=O)c4ccc(F)cc4)CC3)c2C1=O", "note": "[Compound No. 92, 4-benzoyloxyimino-1-[4-[4-(4-fluorobenzoylpiperidin)-1-yl]butyl]-7-methyl-6,7-dihydropyrrolo[2,3-c]azepin-8(1H,5H)-one]", "values": [{"measurement": "Anti α1 action (percent contraction, % of Control)", "setting": "α1; 10^-7 M test drug, 0.1 µM", "value": "21.5 % of Control"}, {"measurement": "Anti α1 action (percent contraction, % of Control)", "setting": "α1; 10^-8 M test drug, 0.01 µM", "value": "49.3 % of Control"}, {"measurement": "remaining activity at 1 µM", "setting": "[1]", "value": 12.5, "unit": "%"}, {"measurement": "remaining activity at 0.1 µM", "setting": "[1]", "value": 48.5, "unit": "%"}]}]}
